Results from patent US20260297081A1, “COMPOUNDS AND METHODS OF TREATING CANCERS” (Cullgen Inc., priority 2023, published 2026).

test system: MCF7 cells; assay: Anti-proliferation (viability) of MCF7 cells (Table 7, FIG. 2B); format: cell-based; settings: Homo sapiens, MCF7, MCF7 cells, 3-6 days, 10-point serial dilution; read-out: GI IC50 in MCF-7

Structure (SMILES) | IC50
[2H]C([2H])([2H])Nc1ccc(C(=O)Nc2ccc(N(C)C)nn2)c(NC2CC3(C2)CC(C(=O)N2CC4(CCN(c5ccc(Nc6ncc7c(C)c(C(C)=O)c(=O)n(C8CCCC8)c7n6)nc5)C4)C2)C3)n1 (centres unmarked) [CPD-378, 2-((6-(6-(6-((6-acetyl-8-cyclopentyl-5-methyl-7-oxo-7,8-dihydropyrido[2,3-d]pyrimidin-2-yl)amino)pyridin-3-yl)-2,6-diazaspiro[3.4]octane-2-carbonyl)spiro[3.3]heptan-2-yl)amino)-N-(6-(dimethylamino)pyridazin-3-yl)-6-((methyl-d3)amino)nicotinamide] | > 100 nM
CC(=O)c1c(C)c2cnc(Nc3ccc(N4CCC(NCC(=O)NC5CC(Nc6nc(NC(C)C)ccc6C(=O)Nc6ccc(N(C)C)nn6)C5)CC4)cn3)nc2n(C2CCCC2)c1=O (centres unmarked) [CPD-382, 2-((3-(2-((1-(6-((6-acetyl-8-cyclopentyl-5-methyl-7-oxo-7,8-dihydropyrido[2,3-d]pyrimidin-2-yl)amino)pyridin-3-yl)piperidin-4-yl)amino)acetamido)cyclobutyl)amino)-N-(6-(dimethylamino)pyridazin-3-yl)-6-(isopropylamino)nicotinamide] | 50 to 100 nM
[2H]C([2H])([2H])Nc1ccc(C(=O)Nc2ccc(N(C)C)nn2)c(NC2CC23CCN(C(=O)CC(C)N2CCN(c4ccc(Nc5ncc6c(C)c(C(C)=O)c(=O)n(C7CCCC7)c6n5)nc4)CC2)CC3)n1 (centres unmarked) [CPD-383, 2-((6-(3-(4-(6-((6-acetyl-8-cyclopentyl-5-methyl-7-oxo-7,8-dihydropyrido[2,3-d]pyrimidin-2-yl)amino)pyridin-3-yl)piperazin-1-yl)butanoyl)-6-azaspiro[2.5]octan-1-yl)amino)-N-(6-(dimethylamino)pyridazin-3-yl)-6-((methyl-d3)amino)nicotinamide] | > 100 nM
CC(=O)c1c(C)c2cnc(Nc3ccc(CC4CCN(CC(=O)N5CCC(Nc6nc(NC(C)C)ccc6C(=O)Nc6ccc(N(C)C)nn6)CC5)CC4)cn3)nc2n(C2CCCC2)c1=O [CPD-386, 2-((1-(2-(4-((6-((6-acetyl-8-cyclopentyl-5-methyl-7-oxo-7,8-dihydropyrido[2,3-d]pyrimidin-2-yl)amino)pyridin-3-yl)methyl)piperidin-1-yl)acetyl)piperidin-4-yl)amino)-N-(6-(dimethylamino)pyridazin-3-yl)-6-(isopropylamino)nicotinamide] | > 100 nM
CC(=O)c1c(C)c2cnc(Nc3ccc(N4CCN(CC(=O)NC(C)(C)C5CC(Nc6nc(NC(C)C)ccc6C(=O)Nc6cc(C)n(C)n6)C5)CC4)cn3)nc2n(C2CCCC2)c1=O (centres unmarked) [CPD-387, 2-((3-(2-(2-(4-(6-((6-acetyl-8-cyclopentyl-5-methyl-7-oxo-7,8-dihydropyrido[2,3-d]pyrimidin-2-yl)amino)pyridin-3-yl)piperazin-1-yl)acetamido)propan-2-yl)cyclobutyl)amino)-N-(1,5-dimethyl-1H-pyrazol-3-yl)-6-(isopropylamino)nicotinamide] | 50 to 100 nM
CC(=O)c1c(C)c2cnc(Nc3ccc(C4CCC(NCC(=O)N5CCC(Nc6nc(NC(C)C)ccc6C(=O)Nc6ccc(N(C)C)nn6)CC5)CC4)cn3)nc2n(C2CCCC2)c1=O (centres unmarked) [CPD-389, 2-((1-((4-(6-((6-acetyl-8-cyclopentyl-5-methyl-7-oxo-7,8-dihydropyrido[2,3-d]pyrimidin-2-yl)amino)pyridin-3-yl)cyclohexyl)glycyl)piperidin-4-yl)amino)-N-(6-(dimethylamino)pyridazin-3-yl)-6-(isopropylamino)nicotinamide] | > 100 nM
CC(=O)c1c(C)c2cnc(Nc3ccc(N4CCC(N5CC(C(=O)N6CCC(Nc7nc(NC(C)C)ccc7C(=O)Nc7ccc(N(C)C)nn7)CC6)C5)CC4)cn3)nc2n(C2CCCC2)c1=O [CPD-390, 2-((1-(1-(1-(6-((6-acetyl-8-cyclopentyl-5-methyl-7-oxo-7,8-dihydropyrido[2,3-d]pyrimidin-2-yl)amino)pyridin-3-yl)piperidin-4-yl)azetidine-3-carbonyl)piperidin-4-yl)amino)-N-(6-(dimethylamino)pyridazin-3-yl)-6-(isopropylamino)nicotinamide] | > 100 nM
CC(=O)c1c(C)c2cnc(Nc3ccc(N4CCC(N5CC(C(=O)N6CC7(CC(Nc8nc(NC(C)C)ccc8C(=O)Nc8ccc(N(C)C)nn8)C7)C6)C5)CC4)cn3)nc2n(C2CCCC2)c1=O [CPD-391, 2-((2-(1-(1-(6-((6-acetyl-8-cyclopentyl-5-methyl-7-oxo-7,8-dihydropyrido[2,3-d]pyrimidin-2-yl)amino)pyridin-3-yl)piperidin-4-yl)azetidine-3-carbonyl)-2-azaspiro[3.3]heptan-6-yl)amino)-N-(6-(dimethylamino)pyridazin-3-yl)-6-(isopropylamino)nicotinamide] | > 100 nM
CC(=O)c1c(C)c2cnc(Nc3ccc(CN4CCC(CC(=O)N5CCC(Nc6nc(NC(C)C)ccc6C(=O)Nc6ccc(N(C)C)nn6)CC5)CC4)cn3)nc2n(C2CCCC2)c1=O [CPD-392, 2-((1-(2-(1-((6-((6-acetyl-8-cyclopentyl-5-methyl-7-oxo-7,8-dihydropyrido[2,3-d]pyrimidin-2-yl)amino)pyridin-3-yl)methyl)piperidin-4-yl)acetyl)piperidin-4-yl)amino)-N-(6-(dimethylamino)pyridazin-3-yl)-6-(isopropylamino)nicotinamide] | > 100 nM
CC(=O)c1c(C)c2cnc(Nc3ccc(N4CCC(N5CC(C(=O)NC6CC7(C6)CC(Nc6nc(NC(C)C)ccc6C(=O)Nc6ccc(N(C)C)nn6)C7)C5)CC4)cn3)nc2n(C2CCCC2)c1=O (centres unmarked) [CPD-393, 2-((6-(1-(1-(6-((6-acetyl-8-cyclopentyl-5-methyl-7-oxo-7,8-dihydropyrido[2,3-d]pyrimidin-2-yl)amino)pyridin-3-yl)piperidin-4-yl)azetidine-3-carboxamido)spiro[3.3]heptan-2-yl)amino)-N-(6-(dimethylamino)pyridazin-3-yl)-6-(isopropylamino)nicotinamide] | 50 to 100 nM
CC(=O)c1c(C)c2cnc(Nc3ccc(N4CCC(N5CCC(C(=O)N6CC(Nc7nc(NC(C)C)ccc7C(=O)Nc7ccc(N(C)C)nn7)C6)C5)CC4)cn3)nc2n(C2CCCC2)c1=O (centres unmarked) [CPD-394, 2-((1-(1-(1-(6-((6-acetyl-8-cyclopentyl-5-methyl-7-oxo-7,8-dihydropyrido[2,3-d]pyrimidin-2-yl)amino)pyridin-3-yl)piperidin-4-yl)pyrrolidine-3-carbonyl)azetidin-3-yl)amino)-N-(6-(dimethylamino)pyridazin-3-yl)-6-(isopropylamino)nicotinamide] | > 100 nM
CC(=O)c1c(C)c2cnc(Nc3ccc(N4CCC(N5CCC(C(=O)N6CCC(Nc7nc(NC(C)C)ccc7C(=O)Nc7ccc(N(C)C)nn7)C6)C5)CC4)cn3)nc2n(C2CCCC2)c1=O (centres unmarked) [CPD-395, 2-((1-(1-(1-(6-((6-acetyl-8-cyclopentyl-5-methyl-7-oxo-7,8-dihydropyrido[2,3-d]pyrimidin-2-yl)amino)pyridin-3-yl)piperidin-4-yl)pyrrolidine-3-carbonyl)pyrrolidin-3-yl)amino)-N-(6-(dimethylamino)pyridazin-3-yl)-6-(isopropylamino)nicotinamide] | > 100 nM

The next lines start with the values.

IC50 | Structure (SMILES)
> 100 nM | [2H]C([2H])([2H])Nc1ccc(C(=O)Nc2ccc(N(C)C)nn2)c(NC2CC3(C2)CC(C(=O)N2CCC4(CCN(c5ccc(Nc6ncc7c(C)c(C(C)=O)c(=O)n(C8CCCC8)c7n6)nc5)C4)C2)C3)n1 (centres unmarked) [CPD-379, 2-((6-(7-(6-((6-acetyl-8-cyclopentyl-5-methyl-7-oxo-7,8-dihydropyrido[2,3-d]pyrimidin-2-yl)amino)pyridin-3-yl)-2,7-diazaspiro[4.4]nonane-2-carbonyl)spiro[3.3]heptan-2-yl)amino)-N-(6-(dimethylamino)pyridazin-3-yl)-6-((methyl-d3)amino)nicotinamide]
> 100 nM | [2H]C([2H])([2H])Nc1ccc(C(=O)Nc2ccc(N(C)C)nn2)c(NC2CC3(C2)CC(C(=O)N2CCC4(CCN(c5ccc(Nc6ncc7c(C)c(C(C)=O)c(=O)n(C8CCCC8)c7n6)nc5)CC4)C2)C3)n1 (centres unmarked) [CPD-380, 2-((6-(8-(6-((6-acetyl-8-cyclopentyl-5-methyl-7-oxo-7,8-dihydropyrido[2,3-d]pyrimidin-2-yl)amino)pyridin-3-yl)-2,8-diazaspiro[4.5]decane-2-carbonyl)spiro[3.3]heptan-2-yl)amnion)-N-(6-(dimethylamino)pyridazin-3-yl)-6-((methyl-d3)amnion)nicotinamide]
> 100 nM | CNc1ccc(C(=O)Nc2ccc(N(C)C)nn2)c(NC2CC(C(=O)N3CCC4(CCN(c5ccc(Nc6ncc7c(C)c(C(C)=O)c(=O)n(C8CCCC8)c7n6)nc5)CC4)C3)C2)n1 (centres unmarked) [CPD-381, 2-((3-(8-(6-((6-acetyl-8-cyclopentyl-5-methyl-7-oxo-7,8-dihydropyrido[2,3-d]pyrimidin-2-yl)amino)pyridin-3-yl)-2,8-diazaspiro[4.5]decane-2-carbonyl)cyclobutyl)amino)-N-(6-(dimethylamino)pyridazin-3-yl)-6-(methylamino)nicotinamide]
50 to 100 nM | CNc1ccc(C(=O)Nc2ccc(N(C)C)nn2)c(NC2CCC(C(=O)N3CCC4(CCN(c5ccc(Nc6ncc7c(C)c(C(C)=O)c(=O)n(C8CCCC8)c7n6)nc5)CC4)C3)CC2)n1 (centres unmarked) [CPD-385, 2-((4-(8-(6-((6-acetyl-8-cyclopentyl-5-methyl-7-oxo-7,8-dihydropyrido[2,3-d]pyrimidin-2-yl)amino)pyridin-3-yl)-2,8-diazaspiro[4.5]decane-2-carbonyl)cyclohexyl)amino)-N-(6-(dimethylamino)pyridazin-3-yl)-6-(methylamino)nicotinamide]
> 100 nM | CNc1ccc(C(=O)Nc2ccc(N(C)C)nn2)c(NC2CC(C(=O)NC3CCC4(CC3)CCN(c3ccc(Nc5ncc6c(C)c(C(C)=O)c(=O)n(C7CCCC7)c6n5)nc3)CC4)C2)n1 (centres unmarked) [CPD-388, 2-((3-((3-(6-((6-acetyl-8-cyclopentyl-5-methyl-7-oxo-7,8-dihydropyrido[2,3-d]pyrimidin-2-yl)amino)pyridin-3-yl)-3-azaspiro[5.5]undecan-9-yl)carbamoyl)cyclobutyl)amino)-N-(6-(dimethylamino)pyridazin-3-yl)-6-(methylamino)nicotinamide]
